Reference: US20230087118A1, “IMIDAZO[1,2-a][sequence] DERIVATIVES AND THEIR USE IN THE TREATMENT OF DISEASE” (priority 2019, published 2023)
Structures can show the parent of a compound that is named as a salt.

The compounds below were run against T1, IRAK4 (Homo sapiens, UniProt Q9NWZ3) (assay: biochemical). Settings: not given.
T1 sequence (Q9NWZ3 1-460): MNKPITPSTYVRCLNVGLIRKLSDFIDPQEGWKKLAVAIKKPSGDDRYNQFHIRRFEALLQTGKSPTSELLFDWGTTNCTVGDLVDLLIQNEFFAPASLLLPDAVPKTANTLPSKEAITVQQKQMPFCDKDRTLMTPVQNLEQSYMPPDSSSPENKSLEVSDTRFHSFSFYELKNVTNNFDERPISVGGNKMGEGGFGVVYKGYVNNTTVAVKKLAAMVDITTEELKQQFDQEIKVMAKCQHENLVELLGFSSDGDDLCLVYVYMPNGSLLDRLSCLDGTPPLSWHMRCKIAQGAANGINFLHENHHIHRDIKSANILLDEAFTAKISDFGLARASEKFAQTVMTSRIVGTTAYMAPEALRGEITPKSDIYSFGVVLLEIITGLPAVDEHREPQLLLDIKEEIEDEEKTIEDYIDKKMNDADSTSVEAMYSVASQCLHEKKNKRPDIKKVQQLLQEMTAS

Row | Compound | IC50 [µM]
1 | CCOc1nc(C(=O)Nc2cccc(Cl)c2)cn2cc(C34COC(C)(C3)C4)nc12 [Example 495, N-(3-chlorophenyl)-8-ethoxy-2-(1-methyl-2-oxabicyclo[2.1.1]hexan-4-yl)imidazo[1,2-a]pyrazine-6-carboxamide] | 0.0088
2 | COc1cc2nc(C3CC34CCCCO4)cn2cc1C(=O)Nc1ccccn1 (stereo not shown) [Example 6] | 0.151
3 | CCOc1nc(C(=O)Nc2cccnc2OC)cn2cc([C@@H]3CCOC3)nc12 (single isomer, unassigned) [Example 599] | 0.0056
4 | CC12CC(c3cn4cc(C(=O)Nc5ccn(C6CCC6)n5)c(OC5CCC5)cc4n3)(CO1)C2 [Example 524, 7-Cyclobutoxy-N-(1-cyclobutyl-1H-pyrazol-3-yl)-2-(1-methyl-2-oxabicyclo[2.1.1]hexan-4-yl)imidazo[1,2-a]pyridine-6-carboxamide] | 0.0111
5 | CCOc1nc(C(=O)Nc2cccc3c2CCC3)cn2cc(C3CCOCC3)nc12 [Example 211] | 0.0116
6 | CCOc1nc(C(=O)Nc2ccn(C(F)F)n2)cn2cc(C34COC(C)(C3)C4)nc12 [Example 490, N-(1-(difluoromethyl)-1H-pyrazol-3-yl)-8-ethoxy-2-(1-methyl-2-oxabicyclo[2.1.1]hexan-4-yl)imidazo[1,2-a]pyrazine-6-carboxamide] | 0.0065
7 | CC(C)Oc1nc(C(=O)Nc2ccn(C)n2)cn2cc([C@]34CC[C@](C)(C3)OC4)nc12 (single isomer, unassigned) [Example 593] | 0.0065
8 | CC12CC(c3cn4cc(C(=O)Nc5cccn(C(F)F)c5=O)c(OCCOC(F)F)cc4n3)(CO1)C2 [Example 446, 7-(2-(Difluoromethoxy)ethoxy)-N-(1-(difluoromethyl)-2-oxo-1,2-dihydropyridin-3-yl)-2-(1-methyl-2-oxabicyclo[2.1.1]hexan-4-yl)imidazo[1,2-a]pyridine-6-carboxamide] | 0.0046
9 | COc1nc(C(=O)Nc2cccc(C(F)(F)F)n2)cn2cc(C[C@@H]3CCOC3)nc12 (single isomer, unassigned) [Example 70] | 0.0169
10 | CC(C)Oc1cc2nc(C34CCC(C)(C3)OC4)cn2cc1C(=O)Nc1nc(C(F)(F)F)cs1 (stereo not shown) [Example 503, 7-Isopropoxy-2-(1-methyl-2-oxabicyclo[2.2.1]heptan-4-yl)-N-(4-(trifluoromethyl)thiazol-2-yl)imidazo[1,2-a]pyridine-6-carboxamide] | 0.0055
11 | CC(C)Oc1cc2nc(C34CC(C#N)(C3)C4)cn2cc1C(=O)Nc1ccn(C)n1 [Example 404, 2-(3-Cyanobicyclo[1.1.1]pentan-1-yl)-7-isopropoxy-N-(1-methyl-1H-pyrazol-3-yl)imidazo[1,2-a]pyridine-6-carboxamide] | 0.0077
12 | CCOc1cc2nc([C@@H]3C[C@H]3F)cn2cc1C(=O)Nc1cccc(OC)n1 (single isomer, unassigned) [Example 67] | 0.0397
13 | CC(C)COc1cc2nc(C3CC3)cn2cc1C(=O)Nc1cccc(C(F)F)n1 [Example 466, 2-Cyclopropyl-N-(6-(difluoromethyl)pyridin-2-yl)-7-isobutoxyimidazo[1,2-a]pyridine-6-carboxamide] | 0.0057
14 | Cn1ccc(NC(=O)c2cn3cc(C45CCC(C)(CC4)OC5)nc3cc2OC2CCC2)n1 [Example 570, 7-Cyclobutoxy-N-(1-methyl-1H-pyrazol-3-yl)-2-(1-methyl-2-oxabicyclo[2.2.2]octan-4-yl)imidazo[1,2-a]pyridine-6-carboxamide] | 0.0004
15 | CCOc1cc(C(=O)Nc2cccc(C(F)F)n2)cn2cc(C3CCCOC3)nc12 (stereo not shown) [Example 52, N-(6-(difluoromethyl)pyridin-2-yl)-8-ethoxy-2-(tetrahydro-2H-pyran-3-yl)imidazo[1,2-a]pyridine-6-carboxamide] | 0.0075
16 | CC(C)Oc1cc2nc(C34COC(C)(C3)C4)cn2cc1C(=O)Nc1cccc(C(F)(F)F)n1 [Example 245] | 0.0003
17 | CCOc1nc(C(=O)Nc2cc(F)cn(C)c2=O)cn2cc([C@H]3CCCOC3)nc12 (single isomer, unassigned) [Example 597] | 0.014
18 | CC(C)Oc1nc(C(=O)Nc2ccnc3ccnn23)cn2cc(C34COC(C)(C3)C4)nc12 [Example 400, 8-Isopropoxy-2-(1-methyl-2-oxabicyclo[2.1.1]hexan-4-yl)-N-(pyrazolo[1,5-a]pyrimidin-7-yl)imidazo[1,2-a]pyrazine-6-carboxamide] | 0.0136
19 | COc1cc2nc(C34COC(C)(C3)C4)cn2cc1C(=O)Nc1ccccn1 [Example 1, 7-Methoxy-2-(1-methyl-2-oxabicyclo[2.1.1]hexan-4-yl)-N-(2-pyridyl)imidazo[1,2-a]pyridine-6-carboxamide] | 0.0298
20 | CC(C)Oc1cc2nc(C3COCCO3)cn2cc1C(=O)Nc1cnn2cccnc12 (stereo not shown) [Example 331, 2-(1,4-Dioxan-2-yl)-7-isopropoxy-N-(pyrazolo[1,5-a]pyrimidin-3-yl)imidazo[1,2-a]pyridine-6-carboxamide] | 0.002
21 | CC(C)Oc1nc2nc(C34COC(C)(C3)C4)cn2cc1C(=O)Nc1cccc(OC(F)F)n1 [Example 411, N-(6-(difluoromethoxy)pyridin-2-yl)-7-isopropoxy-2-(1-methyl-2-oxabicyclo[2.1.1]hexan-4-yl)imidazo[1,2-a]pyrimidine-6-carboxamide] | 0.0008
22 | Cc1nocc1NC(=O)c1cn2cc(C34CCC(C)(C3)OC4)nc2cc1OC(C)C (stereo not shown) [Example 507, 7-Isopropoxy-2-(1-methyl-2-oxabicyclo[2.2.1]heptan-4-yl)-N-(3-methylisoxazol-4-yl)imidazo[1,2-a]pyridine-6-carboxamide] | 0.0095
23 | Cn1nc(NC(=O)c2cn3cc(C45CCC(C)(C4)OC5)nc3cc2OC2CCC2)cc1F (stereo not shown) [Example 419, 7-Cyclobutoxy-N-(5-fluoro-1-methyl-1H-pyrazol-3-yl)-2-(1-methyl-2-oxabicyclo[2.2.1]heptan-4-yl)imidazo[1,2-a]pyridine-6-carboxamide] | 0.0033
24 | CC12CC(c3cn4cc(C(=O)Nc5cccn(C(F)F)c5=O)c(OC5CCC5)cc4n3)(CO1)C2 [Example 442, 7-Cyclobutoxy-N-(1-(difluoromethyl)-2-oxo-1,2-dihydropyridin-3-yl)-2-(1-methyl-2-oxabicyclo[2.1.1]hexan-4-yl)imidazo[1,2-a]pyridine-6-carboxamide] | 0.0002
25 | Cn1ccc(NC(=O)c2cn3cc(C4CC4)nc3c(OC3CC3)n2)n1 [Example 281, 8-Cyclopropoxy-2-cyclopropyl-N-(1-methyl-1H-pyrazol-3-yl)imidazo[1,2-a]pyrazine-6-carboxamide] | 0.0264
26 | COc1cc2nc(C3CCOCC3)cn2cc1C(=O)Nc1ccn(CCF)n1 [Example 190] | 0.111
27 | Cc1cnc2c(NC(=O)c3cn4cc([C@]56CO[C@H](CCO5)C6)nc4nc3OC(C)C)cnn2c1 (single isomer, unassigned) [Example 647] | 0.0013
28 | CCOc1cc(C(=O)Nc2cccc(C(F)F)n2)cn2cc([C@@H]3CCCOC3)nc12 (single isomer, unassigned) [Example 54] | 0.0065
29 | CCOc1cc2nc([C@H]3C[C@H]3F)cn2cc1C(=O)Nc1cccc(OC)n1 [Example 79] | 0.0126

Same assay, conditions: IRAK4 Biochemical Assay (1 mM ATP, 2 h) IC50 (μM), 1 mM ATP, 2 h, 100 pM IRAK4

Row | Compound | IC50 [µM]
30 | CC(C)Oc1cc2nc(C34COC(C)(C3)C4)cn2cc1C(=O)Nc1cnn(C)n1 [Example 316, 7-Isopropoxy-N-(2-methyl-2H-1,2,3-triazol-4-yl)-2-(1-methyl-2-oxabicyclo[2.1.1]hexan-4-yl)imidazo[1,2-a]pyridine-6-carboxamide trifluoroacetate] | 0.005
31 | CC1(COc2cc3nc(C45COC(C)(C4)C5)cn3cc2C(=O)Nc2cccn(C(F)F)c2=O)CCOC1 (stereo not shown) [Example 444, N-(1-(difluoromethyl)-2-oxo-1,2-dihydropyridin-3-yl)-2-(1-methyl-2-oxabicyclo[2.1.1]hexan-4-yl)-7-((3-methyltetrahydrofuran-3-yl)methoxy)imidazo[1,2-a]pyridine-6-carboxamide] | 0.0042
32 | C[C@@]12CC[C@@](c3cn4cc(C(=O)Nc5ccccn5)nc(OC5CCC5)c4n3)(CO1)C2 (single isomer, unassigned) [Example 622] | 0.004
33 | O=C(Nc1cccc(C(F)F)n1)c1cn2cc(C3CC3)nc2cc1OCC1CC2CCC1O2 (stereo not shown) [Example 470, 7-((7-Oxabicyclo[2.2.1]heptan-2-yl)methoxy)-2-cyclopropyl-N-(6-(difluoromethyl)pyridin-2-yl)imidazo[1,2-a]pyridine-6-carboxamide] | 0.0015
34 | COc1nc(C(=O)Nc2cccc3c2OCCC3)cn2cc(C3CCOCC3)nc12 [Example 205, N-chroman-8-yl-8-methoxy-2-tetrahydropyran-4-yl-imidazo[1,2-a]pyrazine-6-carboxamide trifluoroacetate] | 0.0341
35 | CCOc1nc(C(=O)Nc2cccnc2OC)cn2cc(C34CCC(C)(C3)OC4)nc12 (stereo not shown) [Example 276, 8-Ethoxy-N-(2-methoxypyridin-3-yl)-2-(1-methyl-2-oxabicyclo[2.2.1]heptan-4-yl)imidazo[1,2-a]pyrazine-6-carboxamide trifluoroacetate] | 0.0009
36 | CC(C)Oc1nc2nc(C34COC(C)(C3)C4)cn2cc1C(=O)Nc1ccn(C2CCC2)n1 [Example 364, N-(1-cyclobutyl-1H-pyrazol-3-yl)-7-isopropoxy-2-(1-methyl-2-oxabicyclo[2.1.1]hexan-4-yl)imidazo[1,2-a]pyrimidine-6-carboxamide trifluoroacetate] | 0.0057
37 | COc1nc(C(=O)Nc2cccc(C(F)(F)F)n2)cn2cc(C3CCOCC3)nc12 [Example 76] | 0.0095
